From patent publication US8633005B2, “Isocyclomaltooligosaccharide(s), isocyclomaltooligosaccharide-forming enzyme, their preparation and uses” (Hayashibara Co., Ltd., priority 2004, dated 2014) come the findings set out here.

Read-outs that look alike come from different tables or passages of the source.

Assay [1] relates to ICM-forming enzyme. Kind of assay: Action on various saccharides (substrate specificity, TLC). It is filed as biochemical, Bacillus circulans AM7. Also on record: key: −: Not changed; +: Spot of substrate is slightly decreased and the formation of ICM are detected; ++: Spot of substrate is markedly decreased and the formation of ICM are detected; +++: Spot of substrate is virtually disappeared and the formation of ICM are detected. Conditions: substrate 2% (w/v), one unit/g-substrate enzyme, 40° C., pH 6.0, 24 hours. Here is the method:
Substrate specificity of ICM-forming enzyme was investigated using various saccharides as substrates. Substrate solutions were prepared by dissolving maltose, maltotriose, maltotetraose, maltopentaose, maltohexaose, maltoheptaose, neotrehalose, trehalose, kojibiose, nigerose, isomaltose, isomaltotriose, panose, isopanose, maltitol, maltotriitol, α-, β-, or γ-cyclodextrin, amylose, soluble starch, glycogen, pullulan or dextran in water. Each substrate solution was admixed with acetate buffer (pH 6.0) and CaCl2 to give final concentrations of 20 mM and 1 mM, respectively. […] Substrate concentration was set to 2% (w/v) and followed by the enzyme reaction at 40° C. and pH 6.0 for 24 hours. To examine the saccharides in each mixture before and after the reaction, saccharides were separated by silica gel thin-layer chromatography (hereinafter, simply abbreviated as “TLC”) using “KIESELGEL 60”, a TLC aluminum plate (10×20 cm) and a solvent (n-butanol/pyridine/water, volume ratio of 6:4:1) and two-times ascending method. The separated saccharides on the plate were detected by visualizing the spots with sulfate-methanol method. By the above TLC analyses, the enzymatic action and the degree of the reaction of ICM-forming enzyme on each substrate were confirmed.

For assay [2], the system named is ICM-forming enzyme. Kind of assay: Effects of metal ions on the enzyme activity. It is filed as biochemical, Bacillus circulans AM7.

As for dextran, the Action result in the assay with ICM-forming enzyme [1] is recorded as “−”.
Consider `OC[C@@H](O)[C@@H](O[C@H]1O[C@H](CO)[C@@H](O[C@H]2O[C@H](CO)[C@@H](O)[C@H](O)[C@H]2O)[C@H](O)[C@H]1O)[C@H](O)[C@@H](O)CO` [Maltotriitol, maltotriitol], for which the Action entry in the assay with ICM-forming enzyme [1] is recorded as “−”.
In the case of `[Cl-].[Cl-].[Mg+2]` [MgCl2], the Relative activity in the assay on ICM-forming enzyme [2] (1 mM metal salt, None = 100) turned out to be 110%.
As for `[Cl][Hg][Cl]` [HgCl2], the “Inhibition of ICM-forming enzyme activity” value in the assay on ICM-forming enzyme [2] (1 mM metal salt) was determined as 45%. Besides, the Relative activity in the assay with ICM-forming enzyme [2] (1 mM metal salt, None = 100) is recorded as 55%.
In the case of `OC[C@H]1O[C@H](OC[C@H]2O[C@H](OC[C@H]3OC(O)[C@H](O)[C@@H](O)[C@@H]3O)[C@H](O)[C@@H](O)[C@@H]2O)[C@H](O)[C@@H](O)[C@@H]1O` (stereo partly shown) [Isomaltotriose, isomaltotriose], in the assay on ICM-forming enzyme [1], the Action result is “−”.
For `[Cl][Pb][Cl]` [PbCl2], the Relative activity in the assay on ICM-forming enzyme [2] (1 mM metal salt, None = 100) amounted to 130%.
For the molecule `OC[C@H]1O[C@H](O[C@H]2[C@H](O)[C@@H](O)C(O)O[C@@H]2CO)[C@H](O)[C@@H](O)[C@@H]1O` (mixture of isomers) [Maltose, maltose], the Action result in the assay on ICM-forming enzyme [1] is on record as “−”.
For `[Cl][Fe][Cl]` [FeCl2], in the assay with ICM-forming enzyme [2] (1 mM metal salt, None = 100), the Relative activity turned out to be 94%.
As to `O=C(O)CN(CCN(CC(=O)O)CC(=O)O)CC(=O)O` [EDTA], the “Inhibition of ICM-forming enzyme activity” value in the assay with ICM-forming enzyme [2] (1 mM metal salt) is “inhibited slightly”. Further, in the assay on ICM-forming enzyme [2] (1 mM metal salt, None = 100), the Relative activity came to 86%.
Turning to `[Cl][Mn][Cl]` [MnCl2], the Relative activity in the assay on ICM-forming enzyme [2] (1 mM metal salt, None = 100) worked out at 108%.
For the molecule `[Cl-].[Cl-].[Co+2]` [CoCl2], the Relative activity in the assay on ICM-forming enzyme [2] is listed as 100%.
With `OC[C@H]1O[C@H](O[C@H]2C(O)O[C@H](CO)[C@@H](O)[C@@H]2O)[C@H](O)[C@@H](O)[C@@H]1O` (stereo partly shown) [Kojibiose, kojibiose], the Action result in the assay on ICM-forming enzyme [1] was “−”.
Regarding soluble starch, the Action entry with ICM-forming enzyme [1] is “++”.
Regarding `OC[C@H]1O[C@@H](O[C@H]2O[C@H](CO)[C@@H](O)[C@H](O)[C@H]2O)[C@H](O)[C@@H](O)[C@@H]1O` [Neotrehalose, neotrehalose], the Action entry with ICM-forming enzyme [1] is reported as “−”.
Take `[Ca+2].[Cl-].[Cl-]` [CaCl2]: the Relative activity in the assay with ICM-forming enzyme [2] (1 mM metal salt, None = 100) was 105%.
maltohexaose: the Action result with ICM-forming enzyme [1] is recorded as “+++”.
As for `OC[C@H]1O[C@H](O[C@H]2[C@H](O)[C@@H](O)[C@@H](O[C@H]3[C@H](O)[C@@H](O)[C@@H](O[C@H]4[C@H](O)[C@@H](O)C(O)O[C@@H]4CO)O[C@@H]3CO)O[C@@H]2CO)[C@H](O)[C@@H](O)[C@@H]1O` (stereo partly shown) [Maltotetraose, maltotetraose], the Action result with ICM-forming enzyme [1] is reported as “++”.
Turning to `OC[C@H]1O[C@H](OC[C@H]2OC(O)[C@H](O)[C@@H](O)[C@@H]2O)[C@H](O)[C@@H](O)[C@@H]1O` (stereo partly shown) [Isomaltose, isomaltose], in the assay with ICM-forming enzyme [1], the Action result is “−”.
With glycogen, the Action result in the assay on ICM-forming enzyme [1] is “+”.
Still for that read-out and setting: next, `OC[C@H]1O[C@H](O[C@H]2[C@H](O)[C@@H](CO)OC(O)[C@@H]2O)[C@H](O)[C@@H](O)[C@@H]1O` (stereo partly shown) [Nigerose, nigerose]: “−”.
Consider `OC[C@H]1O[C@H](O[C@H]2[C@H](O)[C@@H](O)[C@@H](OC[C@H]3OC(O)[C@H](O)[C@@H](O)[C@@H]3O)O[C@@H]2CO)[C@H](O)[C@@H](O)[C@@H]1O` (stereo partly shown) [Isopanose, isopanose], for which, in the assay with ICM-forming enzyme [1], the Action result was “−”.
On to `OC[C@H]1O[C@H](OC[C@H]2O[C@H](O[C@H]3[C@H](O)[C@@H](O)C(O)O[C@@H]3CO)[C@H](O)[C@@H](O)[C@@H]2O)[C@H](O)[C@@H](O)[C@@H]1O` (stereo partly shown) [Panose, panose], for which the Action entry in the assay with ICM-forming enzyme [1] is listed as “−”.
On to maltopentaose, for which the Action entry with ICM-forming enzyme [1] was “+++”.
For `OC[C@@H](O)[C@@H](O[C@H]1O[C@H](CO)[C@@H](O)[C@H](O)[C@H]1O)[C@H](O)[C@@H](O)CO` [Maltitol, maltitol], the Action result in the assay on ICM-forming enzyme [1] is listed as “−”.
As to maltoheptaose, the Action result with ICM-forming enzyme [1] is listed as “+++”.
For `OC[C@H]1O[C@H](O[C@H]2O[C@H](CO)[C@@H](O)[C@H](O)[C@H]2O)[C@H](O)[C@@H](O)[C@@H]1O` [Trehalose, trehalose], the Action result in the assay with ICM-forming enzyme [1] was “−”.
On the same count and under the same terms, next, amylose: “+++”.
Same read-out and setting: next, pullulan: “−”.
For the molecule maltotriose, the Action result in the assay with ICM-forming enzyme [1] is listed as “+”.
